Entries after “also recorded” stand apart in the source; their conditions may differ.
What was measured:
IFNAR1 [1] = experiment: Effect of lysosome / proteasome inhibitors on LRPAP1-induced IFNAR1 reduction, HEK-293T cells; conditions: 4 h, MA 20 mM; for effect on LRPAP1-induced IFNAR1 reduction: bafilomycin 1 μM, MG132 40 μM, leupeptin 50 μM
IFNAR1 [2] = experiment: IFNAR1 protein level, immunoblot, HEK-293T cells; type: cell-based, human
IFNAR1 [3] = experiment: IFNAR1 endocytosis, EEA1 immunofluorescence, HEK-293T cells; type: cell-based, human; conditions: 200 nM, 1 h
Experimental: Cellular expression of IFNAR1, viral protein VP1 and LRPAP1 at HEK-293T cells with and without the stimulation of EV71, the recombinant LRPAP1, and overexpression of LRPAP1 or 2A, were examined by the following protocol. Briefly, HEK-293T cells were washed twice with PBS and fixed with 4% paraformaldehyde for 20 min. Afterwards, cells were incubated with blocking buffer (10% (v/v) FBS, 1% (v/v) BSA, and 0.1% (v/v) Triton in PBS) for 2 h. Cells were then incubated with specific antibodies. […] After washing with PBST (PBS + 0.1% Tween-20) for 3 times, cells were labeled with Alexa Fluor 488 (green), or Alexa Fluor 594 (red) conjugated secondary antibody (dilution of 1:1000) (Life Technologies) for 1 h at 4 °C with shaking. After three times washing with PBST (PBS + 0.1% Tween-20), cells were followed by nuclei staining with DAPI (0.5 μg/ml) for 5 min at room temperature. Finally, cells were mounted with Prolong Gold Antifade Reagent on slides. Images were taken by Carl Zeiss LSM 880 confocal microscope using 63× oil objective and analyzed by ZEN software.

EV71 [4] = experiment: EV71 infection of RD cells (viral RNA, titer, viral protein, CPE)
[5] = test system: extracellular domain of IFNAR1; experiment: Pull-down / co-immunoprecipitation of LRPAP1 with IFNAR1; type: binding; conditions: Residues 1–436
Experimental: The interaction of LRPAP1, LRP1 and IFNAR1 was examined by immunoprecipitation using a protocol described as followed. HEK293T cells were cultured at around 90% confluence in a 100 mm tissue culture dish. Cells were washed with 10 ml of PBS and harvested in 0.5 ml of ice-cold lysis buffer ([…], pH 7.4, 1% SDS, 1% NP-40) and Protease Cocktail (Roche) and PhoSTOP (Roche). The total extract was pre-cleared with 10 μg normal rabbit IgG (Cell signaling, 2729 S) and 20 μl of protein A/G plus-agarose (Santa Cruz Biotechnology) at 4 °C on a rotor for 1 h. After gently removed protein A/G agarose beads by centrifugation at 500 rcf for 2 min, 0.2 mg of total extract was immunoprecipitated with the indicated antibodies overnight at 4 °C on a rotor. Approximately 20 μl of protein A/G plus-agarose (Santa Cruz Biotechnology) was added at 4 °C for one hour. Then, the beads were washed three times with washing buffer (lysis buffer contained 0.1% NP-40). The pellet was suspended with 40 μl PBS and 10 μl of 5× SDS-PAGE loading buffer and the samples were boiled for 10 min.
The interaction of LRPAP1, LRP1 and IFNAR1 was examined by immunoprecipitation using a protocol described as followed. HEK293T cells were cultured at around 90% confluence in a 100 mm tissue culture dish. […]

HCoV-OC43 = HCoV-OC43 infection of RD cells (viral RNA, TCID50, CPE); conditions: pre-treated 1 h (or siRNA 24 h), MOI 1, 72 h
IFNAR1 [6] = experiment: IFNAR1 protein level, immunoblot / immunofluorescence, RD cells; type: cell-based; conditions: RD cells, 200 nM, 1 h
EV71 [7] = experiment: EV71 entry and uncoating, HEK-293T cells; type: cell-based; conditions: pre-treated on ice 1 h, EV71 MOI 50, within 1 h
EV71 [8] = experiment: EV71 infection of newborn C57BL/6 mice; type: in vivo
Experimental: The C57BL/6 mice were purchased and were bred in the City University of Hong Kong. All animal experiment protocols were approved by the Ethics Committee of City University of Hong Kong with the license from Department of Health, Hong Kong (18-69 in DH/SHS/8/2/5 Pt.3). The studies were performed in accordance with the approved protocol. […] The neurological status and behavior of each mouse was measured every day. On day 7, mice were sacrificed, and the intestine and blood were collected for viral testing.

IFNAR1 [9] = experiment: Flow cytometry, cell surface IFNAR1 on 4T1 cells; type: cell-based, murine; conditions: live 4T1 cells, 200 nM
Experimental: (§1) The surface IFNAR1 was monitored by flow cytometry as previous described.[60] Briefly, murine breast cancer cells (4T1) were stained with APC-conjugated IFNAR1 (Biolegend #127314, 1:100) on ice for 30 min. […] Fluorescence-activated cells were then sorted and analyzed by Beckman Coulter CytoFLEX S Flow cytometer ([…]). The result was analyzed by FlowJo (version 10.5.3).
as §1, with “described^63.” for “described.[60]”

IFNAR1 [10] = experiment: IFNAR1 and LRPAP1 in membrane and cytosol fractions, HEK-293T cells; type: cell-based, human; conditions: 200 nM, 1 min to 10 min
Experimental: Then proteins were subjected to Western blotting. […] Hes1 (Abcam, ab71559).
(§2) Tissues were washed twice with PBS and made into homogenate by 2 ml grinder. Membrane proteins were separated from cytosol protein extraction by using the protocol of membrane protein extraction kit (89842, Thermo).

IFNAR1 [11] = experiment: IFNAR1 phosphorylation immunoblot, HEK-293T cells; type: cell-based, human; conditions: extracellular rLRPAP1, 1 h
IFNAR1 [12] = experiment: LRPAP1 stimulated mouse brain ex vivo, membrane IFNAR1 immunoblot; set-up: species or system C57BL/6 mouse; conditions: 200 nM, ACSF, 1 h
Experimental: as §2

LRP1 = type: cell-based, human
LRPAP1 [13] = type: cell-based, human
LRPAP1 [14] = type: cell-based, human; remark: listed apart in the source

## CN [methylamine]
IFNAR1 [1]
  effect on LRPAP1-induced IFNAR1 reduction: prohibited by lysosome inhibitors
IFNAR1 [1]; ubiquitin, LRPAP1, IFNAR1 expressed
  protection of IFNAR1 from degradation: IFNAR1 was protected from degradation

## rLRPAP1: recombinant LRPAP1 from pQTEV-LRPAP1 expressed in E. coli
IFNAR1 [2]; 50 nM, 1 h
  IFNAR1 level on rLRPAP1 treatment: marginal detectable level
IFNAR1 [2]; 200 nM, 1 h
  IFNAR1 level on rLRPAP1 treatment: undetectable level
IFNAR1 [2]; within 15 min, dose-dependent
  IFNAR1 level on rLRPAP1 treatment: rapidly decreased within 15 min in a rLRPAP1 dose-dependent manner
IFNAR1 [3]
  IFNAR1 endocytosis (EEA1 level): increased level of early endosome marker (EEA1)
EV71 [4]; RD cells, 9 h, plasmid, recombinant protein or peptide pre-treatment, viral RNA / titer
  EV71 infection: significantly promoted EV71 infection
EV71 [4]; antibody added 3 h post infection (MOI 10, 6 h), rLRPAP1 200 nM pre-treatment 1 h
  EV71 induced CPE: significantly promoted EV71 infection and EV71-induced CPE
[5]
  direct binding to IFNAR1 extracellular domain (pull-down): directly bound with the extracellular domain of IFNAR1
HCoV-OC43
  HCoV-OC43 intracellular RNA level: increased significantly
  HCoV-OC43 viral titer (TCID50): increased significantly
IFNAR1 [6]
  IFNAR1 in the cell membrane (immunofluorescence): sharply decreased in the cell membrane
EV71 [7]
  EV71 entry and uncoating rate: promoted EV71 entry and uncoating rate within 1 h
EV71 [8]; co-injected EV71 and rLRPAP1, 7 days
  survival rate: 75%
EV71 [8]; co-injected EV71 and rLRPAP1, after two injections (Day 3)
  mice with severe neurological deficits: 50%
EV71 [8]; co-injected EV71 and rLRPAP1, i.p. twice per week
  physical condition of mice: severe physical disharmony
EV71 [8]; i.p. EV71 (2*10^8 PFU) + rLRPAP1 (200 nM) twice per week
  EV71 infection and disease in mice: potently enhanced EV71 infection and exacerbated the disease in newborn C57BL/6 mice
IFNAR1 [9]
  cell surface IFNAR1: significantly reduced cell surface IFNAR1
IFNAR1 [10]
  IFNAR1 level in membrane / cytosol fractions: IFNAR1 consistently decreased with time
  rLRPAP1 enrichment in membrane fractions: gradually enriched in the membrane fractions
IFNAR1 [11]
  phosphorylated IFNAR1: promoted in an extracellular rLRPAP1 dose-dependent manner
IFNAR1 [12]
  membrane IFNAR1 in mouse brain: significantly lower

## SARS-CoV-2 3CL^pro: SARS-CoV-2 main protease, transfected pCMV-SARS-CoV-2-3CL
IFNAR1 [2]
  IFNAR1 level: decreased IFNAR1 level; also recorded: expression of IFNAR1 decreased
LRP1
  LRP1 protein level: decreased protein level
LRPAP1 [13]
  extracellular LRPAP1 level: extracellular LRPAP1 increase
LRPAP1 [14]
  LRPAP1 expression: increased LRPAP1 expression

## CO/C1=C\C(C)=C\[C@@H](C)[C@@H](O)[C@@H](C)C/C(C)=C/C=C/[C@H](OC)[C@@H]([C@@H](C)[C@@H](O)[C@H](C)[C@@]2(O)C[C@@H](O)[C@H](C)[C@@H](C(C)C)O2)OC1=O [bafilomycin]
IFNAR1 [1]
  effect on LRPAP1-induced IFNAR1 reduction: prohibited by lysosome inhibitors

— PMC10518340, “Secreted LRPAP1 binds and triggers IFNAR1 degradation to facilitate virus evasion from cellular innate immunity” (Signal Transduction and Targeted Therapy, 2023)
